According to patent publication US5914319A, “Antithrombotic agents” (Eli Lilly and Company, priority 1995, dated 1999):
Structures can show the parent of a compound that is named as a salt.

Assays:
Type in all cases: biochemical
[1] = tested on: Human plasma; assay: Human plasma anticoagulation, thrombin time (TT); conditions: concentration required to double the thrombin time, linear extrapolation
Procedure: (§1) Dog plasma and rat plasma is obtained from conscious mixed-breed hounds (either sex, Hazelton-LRE, Kalamazoo, Mich., U.S.A.) or from anesthetized male Sprague-Dawley rats (Harlan Sprague-Dawley, Inc., Indianapolis, Ind., U.S.A.) by venipuncture into 3.8 percent citrate. Fibrinogen is prepared from in-date ACD human blood as the fraction I-2 according to previous procedures and specifications. […] Human fibrinogen is also purchased as 98 percent pure/plasmin free from American Diagnostica, Greenwich, Conn. Coagulation reagents ACTIN, Thromboplastin, and Human plasma are from Baxter Healthcare Corp., Dade Division, Miami, Fla. Bovine thrombin from Parke-Davis ([…], Mich.) is used for coagulation assays in plasma.
(§2) Coagulation assay procedures are as previously described. […] A CoAScreener coagulation instrument (American LABor, Inc.) is used for all coagulation assay measurements. The prothrombin time (PT) is measured by adding 0.05 mL saline and 0.05 mL Thromboplastin-C reagent to 0.05 mL test plasma. The activated partial thromboplastin time (APTT) is measured by incubation of 0.05 mL test plasma with 0.05 mL Actin reagent for 120 seconds followed by 0.05 mL CaCl2 (0.02M). The thrombin time (TT) is measured by adding 0.05 mL saline and 0.05 mL thrombin (10 NIH units/mL) to 0.05 mL test plasma. The compounds of Formula I are added to human or animal plasma over a wide range of concentrations to determine prolongation effects on the APTT, PT, and TT assays. Linear extrapolations are performed to estimate the concentrations required to double the clotting time for each assay.

[2] = tested on: Human plasma; assay: Human plasma anticoagulation, prothrombin time (PT); conditions: concentration required to double the PT, linear extrapolation
Procedure: as §1, §2

[3] = tested on: Human plasma; assay: Human plasma anticoagulation, activated partial thromboplastin time (APTT); conditions: concentration required to double the APTT, linear extrapolation
Procedure: as §1, §2

Compound	Human Plasma Anticoagulation 2× Clotting time (ng/mL) TT [1]	Human Plasma Anticoagulation 2× Clotting time (ng/mL) PT [2]	Human Plasma Anticoagulation 2× Clotting time (ng/mL) APTT [3]
CCS(=O)(=O)N[C@H](Cc1ccccc1)C(=O)N1CCC[C@H]1C(=O)NCCc1cccc(C(=N)N)c1.Cl [Example 27, EtSO2 -D-Phe-Pro-m-NHCH2 CH2 --C6 H4 C(=NH)NH2.HCl]	1,940 ng/mL	27,000 ng/mL	27,800 ng/mL
Nc1ccc(CNC(=O)[C@@H]2CCCN2C(=O)[C@@H](CC2CCCCC2)NCC(=O)O)cc1F [Example 77, HO2 CCH2 -D-Cha-Pro-4-NHCH2 -2-F-aniline.HCl]	53 ng/mL	890 ng/mL	1,600 ng/mL
N=C(N)c1cccc(CCCNC(=O)[C@@H]2CCCN2C(=O)[C@@H]2NCC[C@@H]3CCCC[C@@H]32)c1 [Example 33, 1-Piq-Pro-m-NHCH2 CH2 CH2 --C6 H4 C(=NH)NH2.HCl]	18,900 ng/mL	70,900 ng/mL	59,300 ng/mL
1-Piq-Pro-p-NHCH2 C6 H4 C(NH)NH2.2HCl [Example 18]	7 ng/mL	170 ng/mL	79 ng/mL
O=C(O)CN[C@H](CC1CCCCC1)C(=O)N1CCC[C@H]1C(=O)NCCCC1CCNCC1 [Example 55, HO2 CCH2 -D-Cha-Pro-4-NHCH2 CH2 CH2 -piperidine.HCl]	55,800 ng/mL	> 91,000 ng/mL	> 91,000 ng/mL
EtSO2 -D-Phe-Pro-p-NHCH2 CH2 C6 H4 CNH(NH)NH2.HCl [Example 35]	4,500 ng/mL	78,400 ng/mL	50,400 ng/mL
CCS(=O)(=O)N[C@H](CC1CCCCC1)C(=O)N1CCC[C@H]1C(=O)NCc1ccc(N)nc1.Cl [Example 84, EtSO2 -D-Cha-Pro-5-NHCH2 -2-aminopyridine.HCl]	110 ng/mL	1,900 ng/mL	1,500 ng/mL
Cl.O=C(O)CN[C@H](CC1CCCCC1)C(=O)N1CCC[C@H]1C(=O)NCCC1=CCNCC1 [Example 59, HO2 CCH2 -D-Cha-Pro-4-NHCH2 CH2 -3,4-dehydropiperidine.HCl]	420 ng/mL	7,000 ng/mL	5,500 ng/mL
N=C(N)c1ccc(CNC(=O)[C@@H]2CCCN2C(=O)[C@@H](CC2CCCCC2)NCCCC(=O)O)cc1 [Example 85, HOOCCH2 CH2 CH2 -D-Cha-Pro-p-NHCH2 C6 H4 C(NH)NH2.HCl]	4.9 ng/mL	197 ng/mL	100 ng/mL
N=C(N)N1CCC(CCNC(=O)[C@@H]2CCCN2C(=O)[C@@H](CC2CCCCC2)NCC(=O)O)CC1 [Example 57, HO2 CCH2 -D-Cha-Pro-4-NHCH2 CH2 -1-amidinopiperidine.HCl]	14 ng/mL	340 ng/mL	360 ng/mL
N=C(N)c1ccc(CNC(=O)[C@@H]2CCCN2C(=O)[C@@H](CC2CCCCC2)NCC(=O)O)nc1 [Example 66, HO2 CCH2 -D-Cha-Pro-2-NHCH2 -5-amidinopyridine.HCl]	7.9 ng/mL	270 ng/mL	180 ng/mL
Cl.O=C(O)CN[C@H](CC1CCCCC1)C(=O)N1CCC[C@H]1C(=O)NCC1=CCNCC1 [Example 58, HO2 CCH2 -D-Cha-Pro-4-NHCH2 -3,4-dehydropiperidine.HCl]	710 ng/mL	11,400 ng/mL	14,300 ng/mL
CCS(=O)(=O)N[C@H](Cc1ccccc1)C(=O)N1CCC[C@H]1C(=O)NCCc1cccc(N=C(N)N)c1.Cl [Example 37, EtSO2 -D-Phe-Pro-m-NHCH2 CH2 C6 H4 NHC(NH)NH2.HCl]	> 9,000 ng/mL	> 9,000 ng/mL	> 9,000 ng/mL
CCS(=O)(=O)N[C@H](CC1CCCCC1)C(=O)N1CCC[C@H]1C(=O)NCc1ccc(C(=N)N)cc1.Cl [Example 80, EtSO2 -D-Cha-Pro-4-NHCH2 C6 H4 C(NH)NH2.HCl]	4 ng/mL	130 ng/mL	40 ng/mL
D-hPro-Pro-p-NHCH2 C6 H4 C(NH)NH2.HCl [Example 17]	26 ng/mL	400 ng/mL	370 ng/mL
Cl.N=C(N)N1CC=C(CNC(=O)[C@@H]2CCCN2C(=O)[C@@H](CC2CCCCC2)NCC(=O)O)CC1 [Example 70, HO2 CCH2 -D-Cha-Pro-4-NHCH2 -1-amidino-3,4-dehydro-piperidine.HCl]	2 ng/mL	180 ng/mL	160 ng/mL
N=C(N)Nc1ccc(CNC(=O)[C@@H]2CCCN2C(=O)[C@@H]2NCC[C@@H]3CCCC[C@@H]32)cc1 [Example 38, D-1-Piq-Pro-p-NHCH2 C6 H4 NHC(NH)NH2.2HCl]	540 ng/mL	11,100 ng/mL	6,100 ng/mL
N=C(N)c1ccc(CNC(=O)[C@@H]2C[C@H](Oc3ccccc3)CN2C(=O)[C@H]2CCCCN2)cc1 (relative stereo) [Example 22, D-hPro-Pro(4-cis-PhO)-p-NHCH2 C6 H4 C(NH)NH2.2HCl]	170 ng/mL	1,000 ng/mL	2,300 ng/mL
N=C(N)Nc1cccc(CCNC(=O)[C@@H]2CCCN2C(=O)[C@@H]2NCC[C@@H]3CCCC[C@@H]32)c1 [Example 41, D-1-Piq-Pro-m-NHCH2 CH2 C6 H4 NHC(NH)NH2.2HCl]	82,200 ng/mL	> 91,000 ng/mL	> 91,000 ng/mL
CCS(=O)(=O)N[C@H](Cc1ccccc1)C(=O)N1CCC[C@H]1C(=O)NCCc1ccc(C(=N)N)cc1 [Example 26, EtSO2 -D-Phe-Pro-p-NHCH2 CH2 --C6 H4 C(=NH)NH2.HCl]	37 ng/mL	750 ng/mL	870 ng/mL
N=C(N)c1cccc(CCNC(=O)[C@@H]2CCCN2C(=O)[C@@H]2NCC[C@@H]3CCCC[C@@H]32)c1 [Example 29, 1-Piq-Pro-m-NHCH2 CH2 --C6 H4 C(=NH)NH2.2HCl]	750 ng/mL	15,800 ng/mL	9,800 ng/mL
N=C(N)c1ccc(CNC(=O)[C@@H]2C[C@@H]3CCCC[C@@H]3N2C(=O)[C@H]2C[C@H]3CCCC[C@H]3CN2)cc1 (relative stereo) [Example 43, D-3-Piq-cis-Ohi-p-NHCH2 C6 H4 C(NH)NH2.2HCl]	280 ng/mL	930 ng/mL	1,100 ng/mL
Cl.N=C(N)c1cc(F)c(CNC(=O)[C@@H]2CCCN2C(=O)[C@@H](CC2CCCCC2)NCC(=O)O)c(F)c1 [Example 72, HO2 CCH2 -D-Cha-Pro-4-NHCH2 -3,5-F2 -benzamidine.HCl]	1 ng/mL	160 ng/mL	160 ng/mL
Cl.O=C(O)CNC(CC1CCCCC1)C(=O)N1CCCC1C(=O)NCCC1CCNCC1 [Example 54, HO2 CCH2 -D-Cha-Pro-4-NHCH2 CH2 -piperidine.HCl]	140 ng/mL	2,200 ng/mL	3,300 ng/mL
N=C(N)c1ccc(CNC(=O)[C@@H]2CCCN2C(=O)[C@@H](CCC2CCCCC2)NCC(=O)O)cc1 [Example 88, HOOCCH2 -D-hCha-Pro-p-NHCH2 C6 H4 C(NH)NH2.HCl]	4 ng/mL	200 ng/mL	100 ng/mL
